According to ChEMBL document CHEMBL1136512, “Discovery of a novel series of 6-azauracil-based thyroid hormone receptor ligands: potent, TR beta subtype-selective thyromimetics” (Bioorg Med Chem Lett, 2003):

Molecular target: T1, Thyroid hormone receptor beta (Homo sapiens, UniProt P10828)
T1 sequence (P10828 whole entry): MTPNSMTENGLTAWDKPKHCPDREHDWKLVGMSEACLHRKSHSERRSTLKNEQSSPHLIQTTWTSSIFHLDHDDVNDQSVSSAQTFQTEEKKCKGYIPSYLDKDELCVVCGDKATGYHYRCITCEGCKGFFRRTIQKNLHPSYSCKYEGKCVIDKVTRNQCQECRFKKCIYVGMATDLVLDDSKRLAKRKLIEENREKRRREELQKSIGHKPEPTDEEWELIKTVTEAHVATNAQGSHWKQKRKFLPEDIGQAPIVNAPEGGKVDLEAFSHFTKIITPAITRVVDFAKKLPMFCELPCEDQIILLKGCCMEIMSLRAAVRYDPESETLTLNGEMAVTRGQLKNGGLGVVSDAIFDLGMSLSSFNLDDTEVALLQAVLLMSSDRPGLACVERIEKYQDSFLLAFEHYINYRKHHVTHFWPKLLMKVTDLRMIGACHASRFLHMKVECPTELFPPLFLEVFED
Assay: Effective concentration binding towards TR-beta-1 in E25B2 cells (agonistic activity)

SMILES | EC50 [nM]
O=c1cnn(-c2cc(Cl)c(Oc3ccc(O)c(S(=O)(=O)N4C5CCC4CC4(CCCO4)C5)c3)c(Cl)c2)c(=O)[nH]1 (stereo unspecified) | 62

Molecular target: T2, Thyroid hormone receptor alpha (Homo sapiens, UniProt P10827)
T2 sequence (P10827 whole entry): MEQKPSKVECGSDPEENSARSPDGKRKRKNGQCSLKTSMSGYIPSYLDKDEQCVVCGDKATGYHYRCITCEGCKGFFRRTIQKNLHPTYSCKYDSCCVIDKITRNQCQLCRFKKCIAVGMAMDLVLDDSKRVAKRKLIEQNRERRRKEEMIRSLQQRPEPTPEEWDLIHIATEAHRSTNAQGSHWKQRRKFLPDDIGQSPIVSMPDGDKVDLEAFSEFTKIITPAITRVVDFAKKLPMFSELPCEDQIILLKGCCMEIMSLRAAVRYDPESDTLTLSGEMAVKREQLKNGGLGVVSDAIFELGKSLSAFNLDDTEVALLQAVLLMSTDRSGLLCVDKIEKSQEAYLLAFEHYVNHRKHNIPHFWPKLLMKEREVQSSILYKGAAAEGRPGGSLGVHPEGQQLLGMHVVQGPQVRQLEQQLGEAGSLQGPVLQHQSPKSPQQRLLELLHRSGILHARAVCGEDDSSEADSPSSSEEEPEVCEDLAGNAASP
Description: Effective concentration binding towards TRalpha in E25B2 cells (agonistic activity)

SMILES | EC50 [nM]
O=c1cnn(-c2cc(Cl)c(Oc3ccc(O)c(S(=O)(=O)N4C5CCC4CC4(CCCO4)C5)c3)c(Cl)c2)c(=O)[nH]1 (stereo unspecified) | 1500
CC1(C)C2CCC(NC(=O)c3cc(Oc4c(Cl)cc(-n5ncc(=O)[nH]c5=O)cc4Cl)ccc3O)C1C2 (stereo in doubt; 9i) | 12

Molecular target: T1, Thyroid hormone receptor beta

SMILES | Ki [nM]
Cc1cc(-n2ncc(=O)[nH]c2=O)cc(Cl)c1Oc1ccc(O)c(S(=O)(=O)N2CCCCC2)c1 | 0.13
Cc1cc(-n2ncc(=O)[nH]c2=O)cc(Cl)c1Oc1ccc(O)c(C(=O)N2CCCCC2)c1 | 1.9
O=C(NC1CCCCC1)c1cc(Oc2c(Cl)cc(-n3ncc(=O)[nH]c3=O)cc2Cl)ccc1O | 0.07
O=c1cnn(-c2cc(Cl)c(Oc3ccc(O)c(S(=O)(=O)n4ccc5ccccc54)c3)c(Cl)c2)c(=O)[nH]1 | 0.23
Cc1cc(-n2ncc(=O)[nH]c2=O)cc(Cl)c1Oc1ccc(O)c(S(=O)(=O)N2CCN(C)CC2)c1 | 13
O=c1cnn(-c2cc(Cl)c(Oc3ccc(O)c(S(=O)(=O)N4C5CCC4CC4(CCCO4)C5)c3)c(Cl)c2)c(=O)[nH]1 (stereo unspecified) | 0.28
Cc1cc(-n2ncc(=O)[nH]c2=O)cc(C)c1Oc1ccc(O)c(S(=O)(=O)N2CCCCC2)c1 | 0.46
O=C(c1cc(Oc2c(Cl)cc(-n3ncc(=O)[nH]c3=O)cc2Cl)ccc1O)N1CCOCC1 | 0.72
O=c1cnn(-c2cc(Cl)c(Oc3ccc(O)c(S(=O)(=O)NC4CCC4)c3)c(Cl)c2)c(=O)[nH]1 | 0.4
CSc1ccc(Oc2c(C)cc(-n3ncc(=O)[nH]c3=O)cc2C)cc1C | 2
O=C(c1cc(Oc2c(Cl)cc(-n3ncc(=O)[nH]c3=O)cc2Cl)ccc1O)N1CCCCC1 | 0.63

Results, then the compound that gave them:

Ki [nM] | SMILES
0.64 | O=C(NC1CCC1)c1cc(Oc2c(Cl)cc(-n3ncc(=O)[nH]c3=O)cc2Cl)ccc1O
0.02 | O=c1cnn(-c2cc(Cl)c(Oc3ccc(O)c(S(=O)(=O)N4CCCCC4)c3)c(Cl)c2)c(=O)[nH]1
0.31 | O=c1cnn(-c2cc(Cl)c(Oc3ccc(O)c(S(=O)(=O)N4C5CCC4CC4(C5)OCCO4)c3)c(Cl)c2)c(=O)[nH]1
0.59 | O=C(c1cc(Oc2c(Cl)cc(-n3ncc(=O)[nH]c3=O)cc2Cl)ccc1O)N1CC2CCC1C2 (racemic; exo)
0.46 | O=c1cnn(-c2cc(Cl)c(Oc3ccc(O)c(S(=O)(=O)NC4CCCCC4)c3)c(Cl)c2)c(=O)[nH]1
0.16 | O=C(c1cc(Oc2c(Cl)cc(-n3ncc(=O)[nH]c3=O)cc2Cl)ccc1O)N1CC2CCC1C2 (racemic; endo)
0.06 | CC1(C)C2CCC(NC(=O)c3cc(Oc4c(Cl)cc(-n5ncc(=O)[nH]c5=O)cc4Cl)ccc3O)C1C2 (stereo in doubt; 9i)
10000 | Cc1cc(N2CCCNC2=O)cc(C)c1Oc1ccc(O)c(C(C)C)c1
27 | Cc1cc(-n2ncc(=O)[nH]c2=O)cc(Cl)c1Oc1ccc(O)c(S(=O)(=O)N2CCOCC2)c1
0.37 | O=C(c1cc(Oc2c(Cl)cc(-n3ncc(=O)[nH]c3=O)cc2Cl)ccc1O)N1CC2CCC1C2 (stereo in doubt; 9h (R)-(+))
0.1 | O=c1cnn(-c2cc(Cl)c(Oc3ccc(O)c(S(=O)(=O)Nc4ccccc4)c3)c(Cl)c2)c(=O)[nH]1
0.04 | CC1(C)C2CCC(NC(=O)c3cc(Oc4c(Cl)cc(-n5ncc(=O)[nH]c5=O)cc4Cl)ccc3O)C1C2 (stereo in doubt; 9j)
